Key:
Format in all cases: in vivo
Details in all cases: application to foliage, 320 g/ha
[1] = tested on: Abutilon theophrasti; experiment: Test Example 4: herbicidal effect by application to foliage (diluvial soil, plastic box)
Excerpt: (§1) 5 Herbicidal ratio of 90% or more (almost completely withered) 4 Herbicidal ratio of 70% or more and less than 90% 3 Herbicidal ratio of 40% or more and less than 70% 2 Herbicidal ratio of 20% or more and less than 40% 1 Herbicidal ratio of 5% or more and less than 20% 0 Herbicidal ratio of 5% or less (almost no effect) [Test Example 4] Herbicidal Effect Test by Application to Foliage Sterilized diluvial soil was placed in a plastic box having a length of 21 cm, a width of 13 cm, and a depth of 7 cm. Each of the seeds of Digitaria ciliaris, Setaria viridis, Echinochloa crus-galli var. crus-galli, Avena fatua, Alopecurus myosuroides, Lolium multiflorum Lam., Apera spica-venti., Abutilon theophrasti, Amaranthus retroflexus, Chenopodium album, Stellaria media, Galium spurium, Veronica persica, Zea mays, Glycine max, Oryza sativa, Triticum aestivum, Beta vulgaris ssp. vulgaris, and Brassica campestris L. was sowed in a spot-like manner and was covered with the soil of about 1.5 cm thick. Thereafter, the plants were grown in the greenhouse of 25° C. to 30° C. After the plants were grown for 14 days, the emulsion agent containing the compound of the present invention prepared in accordance with Formulation Example 2 was diluted with water so as to be a predetermined herbicide amount and the diluted compound was uniformly applied to a stem and leaf part with a small-size spray. Three weeks after the herbicide application, effects on each plant were investigated in accordance with the criteria of Test Example 1. A: Echinochloa oryzicola Vasing., B: Scirpus juncoides, C: Monochoria vaginalis, D: Leptochloa chinensis, E: Cyperus difformis, F: Digitaria ciliaris, G: Setaria viridis, H: Echinochloa crus-galli var. crus-galli, I: Avena fatua, J: Alopecurus myosuroides, K: Lolium multiflorum Lam., L: Apera spica-venti., M: Abutilon theophrasti, N: Amaranthus retroflexus, O: Chenopodium album, P: Stellaria media, Q: Galium spurium, R: Veronica persica, a: transplanted Oryza sativa, b: directly sowed Oryza sativa, c: Zea mays, d: Glycine max, e: Triticum aestivum, f: Beta vulgaris ssp. vulgaris, and g: Brassica campestris L. The application herbicide amount (g/ha) means an amount that a concentration is adjusted so that, when an application amount is converted into per hectare (1 ha), the herbicide is applied by the number of grams (g) of the described value.

[2] = tested on: Alopecurus myosuroides; experiment: as above
Excerpt: as §1

[3] = tested on: Amaranthus retroflexus; experiment: as above
Excerpt: as §1

[4] = tested on: Apera spica-venti.; experiment: as above
Excerpt: as §1

[5] = tested on: Avena fatua; experiment: as above
Excerpt: as §1

[6] = tested on: Chenopodium album; experiment: as above
Excerpt: as §1

[7] = tested on: Digitaria ciliaris; experiment: as above
Excerpt: as §1

[8] = tested on: Echinochloa crus-galli var. crus-galli; experiment: as above
Excerpt: as §1

[9] = tested on: Galium spurium; experiment: as above
Excerpt: as §1

[10] = tested on: Lolium multiflorum Lam.; experiment: as above
Excerpt: as §1

[11] = tested on: Setaria viridis; experiment: as above
Excerpt: as §1

[12] = tested on: Stellaria media; experiment: as above
Excerpt: as §1

[13] = tested on: Veronica persica; experiment: as above
Excerpt: as §1

[14] = tested on: Beta vulgaris ssp. vulgaris; experiment: Test Example 4: effect on crop by application to foliage (diluvial soil, plastic box)
Method in brief: (§2)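 Read-out is a 0–5 visual grade of herbicidal ratio (5: ≥90%, almost withered; 0: ≤5%) taken three weeks after treatment. Compound was applied as a diluted emulsion to stem and leaf parts of 14-day greenhouse-grown plants (25° C. to 30° C.) at rates expressed as g/ha.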

[15] = tested on: Brassica campestris L.; experiment: as above
Method in brief: as §2

[16] = tested on: Glycine max; experiment: as above
Method in brief: as §2

[17] = tested on: Triticum aestivum; experiment: as above
Method in brief: as §2

[18] = tested on: Zea mays; experiment: as above
Method in brief: as §2

[19] = tested on: directly sowed Oryza sativa; experiment: as above
Method in brief: as §2

Row | Compound | herbicidal effect, M (Abutilon theophrasti) [1] | herbicidal effect, J (Alopecurus myosuroides) [2] | herbicidal effect, N (Amaranthus retroflexus) [3] | herbicidal effect, L (Apera spica-venti.) [4] | herbicidal effect, I (Avena fatua) [5] | herbicidal effect, O (Chenopodium album) [6] | herbicidal effect, F (Digitaria ciliaris) [7] | herbicidal effect, H (Echinochloa crus-galli var. crus-galli) [8] | herbicidal effect, Q (Galium spurium) [9] | herbicidal effect, K (Lolium multiflorum Lam.) [10] | herbicidal effect, G (Setaria viridis) [11] | herbicidal effect, P (Stellaria media) [12] | herbicidal effect, R (Veronica persica) [13] | effect on crop, f (Beta vulgaris ssp. vulgaris) [14] | effect on crop, g (Brassica campestris L.) [15] | effect on crop, c (Glycine max) [16] | effect on crop, e (Triticum aestivum) [17] | effect on crop, b (Zea mays) [18] | effect on crop, d (directly sowed Oryza sativa) [19]
1 | Cc1nnc(NC(=O)c2ccc(C(F)(F)F)n3c(=O)n(Cc4ccccc4)nc23)o1 [6-006] | 1 (Herbicidal ratio of 5% or more and less than 20%) | 0 (Herbicidal ratio of 5% or less (almost no effect)) | 0 (Herbicidal ratio of 5% or less (almost no effect)) | 0 (Herbicidal ratio of 5% or less (almost no effect)) | 0 (Herbicidal ratio of 5% or less (almost no effect)) | 3 (Herbicidal ratio of 40% or more and less than 70%) | 0 (Herbicidal ratio of 5% or less (almost no effect)) | 0 (Herbicidal ratio of 5% or less (almost no effect)) | 0 (Herbicidal ratio of 5% or less (almost no effect)) | 0 (Herbicidal ratio of 5% or less (almost no effect)) | 0 (Herbicidal ratio of 5% or less (almost no effect)) | 1 (Herbicidal ratio of 5% or more and less than 20%) | 1 (Herbicidal ratio of 5% or more and less than 20%) | 0 (Herbicidal ratio of 5% or less (almost no effect)) | 0 (Herbicidal ratio of 5% or less (almost no effect)) | 0 (Herbicidal ratio of 5% or less (almost no effect)) | 0 (Herbicidal ratio of 5% or less (almost no effect)) | 0 (Herbicidal ratio of 5% or less (almost no effect)) | 0 (Herbicidal ratio of 5% or less (almost no effect))
2 | CCn1nc2c(C(=O)Nc3ncnn3C)ccc(C(F)(F)F)n2c1=O [6-007] | 2 (Herbicidal ratio of 20% or more and less than 40%) | 0 (Herbicidal ratio of 5% or less (almost no effect)) | 3 (Herbicidal ratio of 40% or more and less than 70%) | 0 (Herbicidal ratio of 5% or less (almost no effect)) | 0 (Herbicidal ratio of 5% or less (almost no effect)) | 3 (Herbicidal ratio of 40% or more and less than 70%) | 0 (Herbicidal ratio of 5% or less (almost no effect)) | 0 (Herbicidal ratio of 5% or less (almost no effect)) | 0 (Herbicidal ratio of 5% or less (almost no effect)) | 0 (Herbicidal ratio of 5% or less (almost no effect)) | 0 (Herbicidal ratio of 5% or less (almost no effect)) | 0 (Herbicidal ratio of 5% or less (almost no effect)) | 0 (Herbicidal ratio of 5% or less (almost no effect)) | 3 (Herbicidal ratio of 40% or more and less than 70%) | 0 (Herbicidal ratio of 5% or less (almost no effect)) | 0 (Herbicidal ratio of 5% or less (almost no effect)) | 0 (Herbicidal ratio of 5% or less (almost no effect)) | 0 (Herbicidal ratio of 5% or less (almost no effect)) | 2 (Herbicidal ratio of 20% or more and less than 40%)
